The values below come from PMC7942396, “Drug Repurposing Screen for Compounds Inhibiting the Cytopathic Effect of SARS-CoV-2” (Frontiers in Pharmacology, 2021).

Where “and” joins values, the source holds several entries; their conditions need not be identical. Equal values may be shown once. Where a name gives a salt, the structure may show the parent alone. Read-outs that look alike come from different tables or passages of the source. Bounds are passed on as bounds.

The subject of data set [1] is Vero E6 cells. Conditions: Vero E6 cells without virus, 72 h.
For data set [2] the following is noted: human, cited from earlier work; for Cmax: Single dose 600 mg PO, ref Winstanley et al. (1987).
The subject of data set [3] is SARS-CoV-2 (USA_WA1/2020). Put plainly: microbe, parasite or virus in culture. In kind it is cell-based.
The subject of data set [4] is P-glycoprotein (P-gp). Further details: method as in EMA, 2020. Conditions: ref EMA, 2020; cited from earlier work.
In data set [5] the test system is SARS-CoV-2. Further details: method as in Stanford University, 2020. As to conditions: Calu-3 or Huh7 cell lines; ref Stanford University, 2020; read-out: EC50 against SARS-CoV-2; cited from earlier work.
Data set [6] deals with SARS-CoV-2. Also on record: method as in Stanford University, 2020. Conditions: Vero E6 cells; ref Stanford University, 2020; read-out: EC50 against SARS-CoV-2; cited from earlier work.
In data set [7] the test system is Vero E6 cells. Put plainly: cells. As to conditions: Chlorocebus sabaeus, Vero C1008, read-out: % Viability: IC50.
A short description of data set [8]: in vitro. As to conditions: African green monkey.
Data set [9] relates to Ebola virus. Conditions: ref Kouznetsova et al., 2019; read-out: EC50, block of Ebola viral entry; cited from earlier work.
Data set [10] deals with SARS-CoV. As to conditions: ref Barnard et al., 2008; read-out: EC50, inhibition of SARS-CoV replication; cited from earlier work.
Setting [11] is: Severe acute respiratory syndrome coronavirus 2, Vero C1008, 72 h; read-out: CPE EC50.
The mark [12] stands for this setting: Severe acute respiratory syndrome coronavirus 2, Vero C1008; […]; DMSO 0%, no-virus control 100%; hit confirmation; read-out: CPE % efficacy.
Where [13] appears, read: Severe acute respiratory syndrome coronavirus 2, Vero C1008, read-out: CPE % Efficacy.
Where [14] appears, read: Severe acute respiratory syndrome coronavirus 2, Vero C1008, SARS-CoV-2 CPE assay, Vero E6 cells; confirmed anti-SARS-CoV-2 compounds; read-out: CPE EC50.
The mark [15] stands for this setting: Severe acute respiratory syndrome coronavirus 2, Vero C1008; SARS-CoV-2 CPE assay, Vero E6 cells; efficacy; read-out: CPE % Efficacy.
[16] abbreviates: Severe acute respiratory syndrome coronavirus 2, Vero C1008; SARS-CoV-2 CPE assay, Vero E6 cells; read-out: CPE % Efficacy.
Where [17] appears, read: Severe acute respiratory syndrome coronavirus 2, Vero C1008; SARS-CoV-2 CPE assay, Vero E6 cells; read-out: CPE EC50.

With `CCN(CC)Cc1cc(Nc2ccnc3cc(Cl)ccc23)ccc1O.Cl.Cl.O.O` [Amodiaquine dihydrochloride, reference compound], the “% Cytotox” value in data set [1] is reported as <30%. Moreover, the Cmax was 32 ± 3 ng/mL in data set [2] and 69 nM in data set [2] (read-out: Cmax). Besides, the CPE % Efficacy in [3] ([…]; DMSO 0%, no-virus control 100%; hit confirmation) came to 87.2%. Also, the EC50 in data set [3] (read-out: CPE EC50) was 4 µM.
`CCC(CC)COC(=O)[C@H](C)N[P@](=O)(OC[C@H]1O[C@@](C#N)(c2ccc3c(N)ncnn23)[C@H](O)[C@@H]1O)Oc1ccccc1` [Remdesivir, reference compound]: in data set [4], the “Substrate of Pgp” value is “substrate of Pgp”. Besides, the EC50 was > 0.05 µM in [5]; > 1 µM in data set [6]; 10 µM in data set [3] (setting [11]); 4.56 µM in [3] (Severe acute respiratory syndrome coronavirus 2, Vero C1008, independent runs of primary screens and hit confirmation; read-out: EC50 in the CPE assay, control concentration-response per run); 5.17 µM in data set [3] (independent runs of primary screens and hit confirmation; listed as remdesivir; read-out: EC50 in the CPE assay, control concentration-response per run); 4.42 µM and 7.28 µM in data set [3] (independent runs of primary screens and hit confirmation; read-out: EC50 in the CPE assay, control concentration-response per run). For the same compound, the IC50 in data set [7] was > 30 µM; in data set [3] (Severe acute respiratory syndrome coronavirus 2, Vero C1008, printed in picture of Figure 2B, one value per run; read-out: % CPE Rescue: IC50), 4.56 µM. In addition, in data set [8], the cytotoxicity was < 30%. The Emax in data set [3] (setting [12]) was determined as 133%.
Turning to `CC(=O)c1ccc2c(c1)N(CCCN1CCC(CCO)CC1)c1ccccc1S2` [Piperacetazine, reference compound], the EC50 in [9] was 9.68 µM; in data set [3] (setting [11]), 10 µM. Besides, the cytotoxicity in [8] is < 30%. Further, in [3] (setting [12]), the Emax came to 104%.
For the compound `CN(C)C(=O)C(CCN1CCC(O)(c2ccc(Cl)cc2)CC1)(c1ccccc1)c1ccccc1` [Loperamide hydrochloride, reference compound], the “Elimination T1/2” value in [2] (Single dose 2 mg PO, ref Janssen Pharmaceutica Inc. (1998)) was 9.1 to 14.4 h. Besides, the cytotoxicity in [8] was < 30%. Besides, the Emax in [3] (setting [12]) was 98.6%.
For `COc1ccc2c(c1)N(C[C@H](C)CN(C)C)c1ccccc1S2` [Methotrimeprazine maleate, reference compound], the EC50 in data set [10] is ~10 µM; in [3] (setting [11]) it was 10 µM. Moreover, the “Elimination T1/2” value in [2] (Single dose 25 mg PO, ref AA Pharma Inc. (2012)) is on record as 10.8 h. The cytotoxicity at 72 h in data set [8] is < 30%. The Emax in [3] (setting [12]) was 84.6%.
For `CNCC[C@H](Oc1cccc2ccccc12)c1cccs1` [Duloxetine hydrochloride, reference compound], in data set [2] (60 mg BID PO, ref Knadler et al. (2011)), the “Elimination T1/2” value is 6.96 to 14.9 h. Further, the cytotoxicity in data set [8] was < 30%. For the same compound, in data set [3] (Severe acute respiratory syndrome coronavirus 2, Vero C1008, 72 h, read-out: CPE EC50), the EC50 worked out at 10 µM. In addition, the Emax in data set [3] (setting [13]) amounted to 90%.
Regarding `CNCCCC12CCC(c3ccccc31)c1ccccc12` [Maprotiline hydrochloride, reference compound], the “Elimination T1/2” value in data set [2] (Single dose 75 mg PO, ref Maguire et al. (1980)) was 45 h. In addition, the cytotoxicity in [8] is < 30%. Besides, in data set [3] (setting [13]), the Emax came out at 104%.
`COC(=O)[C@H]1[C@H]2C[C@@H]3c4[nH]c5ccccc5c4CCN3C[C@H]2C[C@@H](OC(=O)c2cc(OC)c(OC)c(OC)c2)[C@@H]1OC` [Deserpidine, reference compound]: in data set [2] (Single dose 0.25 mg PO, ref Zhang et al. (2009)), the “Elimination T1/2” value is reported as 42.9 ± 17.8 h. For the same compound, in data set [8], the cytotoxicity at 72 h was < 30%. Also, the EC50 in data set [3] (setting [11]) turned out to be 10 µM. Further, in [3] (setting [12]), the Emax is 84.7%.
Take `CNCCC(Oc1ccc(C(F)(F)F)cc1)c1ccccc1` (racemic) [(+/-) -Fluoxetine, reference compound]: in data set [2] (Single dose 40 mg PO, ref Eli Lilly and Company (1987)), the “Elimination T1/2” value was 24 to 72 h. The cytotoxicity in data set [8] was < 30%. For the same compound, in data set [3] (setting [12]), the Emax turned out to be 116%.
Consider `CN1CCC[C@@H]1CCO[C@](C)(c1ccccc1)c1ccc(Cl)cc1` [Clemastine fumarate, reference compound], for which the “Elimination T1/2” value in [2] (Single dose 1.34 mg PO, ref Schran et al. (1996)) is 21.3 ± 11.6 h. Moreover, the cytotoxicity in data set [8] was < 30%.
For the compound `CN(C)CC/C=C1/c2ccccc2Sc2ccc(Cl)cc21` [Chlorprothixene, reference compound], the EC50 in data set [10] is ~10 µM; in data set [3] (setting [11]) it was 10 µM. For the same compound, the “Elimination T1/2” value in data set [2] (Single dose 100 mg IV, ref Bagli et al. (1996)) is on record as 25.8 ± 13.6 h. Further, the cytotoxicity in data set [8] is < 30%. For the same compound, the Emax in data set [3] (setting [12]) is 104%.
As for `CC(CN1c2ccccc2Sc2ccc(S(=O)(=O)N(C)C)cc21)N(C)C` (stereo not shown) [Fonazine], the cytotoxicity at 72 h in [8] is 0%. Moreover, the EC50 in data set [3] (setting [14]) turned out to be 11.2 µM. For the same compound, in data set [3] (setting [15]), the Emax was found to be 36.6%.
Regarding `CC1=C(c2ccc(O)cc2)[C@H](c2ccc(OCCN3CCCCC3)cc2)Oc2cc(O)ccc21` [Acolbifene], in data set [8], the CC50 amounted to 12.6 µM and the cytotoxicity is 54.1%. For the same compound, the EC50 in data set [3] (setting [14]) came to 5.62 µM. The Emax in data set [3] (setting [15]) is 56.1%.
Turning to `CCCN1CCN(c2ccc(C(=O)NC3(C(=O)NCC#N)CCCCC3)cc2)CC1` [Balicatib, reference compound], the cytotoxicity at 72 h in data set [8] is < 30%. In data set [3] (setting [11]), the EC50 was found to be 2 µM. In addition, the Emax in data set [3] (setting [12]) turned out to be 100%.
With `C=C1C(=O)[C@]23[C@H](O)[C@H]1CC[C@H]2[C@@]12CO[C@]3(O)[C@@H](O)[C@@H]1C(C)(C)CC[C@@H]2O` [Oridonin], the cytotoxicity in [8] is 27.4%. For the same compound, in [3] (setting [16]), the Emax was 130%. Also, the EC50 in [3] (setting [17]) was determined as 11.2 µM.
On to `CN1[C@@H]2CC[C@H]1C[C@@H](OC(c1ccccc1)c1ccccc1)C2` [Benztropine mesylate], for which the cytotoxicity in data set [8] was 0%. Besides, the Emax in data set [3] (setting [16]) turned out to be 59%.
In [8], `Cc1cn(CCN2CCN(c3ccccc3-c3cc(C#N)cc(C(=O)NCCCN4CCCC4)c3)CC2)c2ccccc12` [LLY-507] came in with a CC50 at 72 h of 12.6 µM and a cytotoxicity at 72 h of 108%. The EC50 in data set [3] (setting [14]) was 3.16 µM. For the same compound, in data set [3] (setting [15]), the Emax was 59.6%.
The compound `C[C@@H](C(=O)Nc1ccc(Cl)cc1)C1CCC(c2ccnc3ccc(F)cc23)CC1` (stereo partly shown) [BMS-986205] showed a cytotoxicity in [8] of 37.7%. Further, the Emax in data set [3] (setting [16]) was found to be 69.8%.
Take `CN1CCN(CCCN2c3ccccc3Sc3ccc(S(=O)(=O)N(C)C)cc32)CC1` [Thioproperazine dimethanesulfonate]: in data set [8], the CC50 at 72 h was 15.8 µM and the cytotoxicity at 72 h was 19.6%. For the same compound, in data set [3] (setting [14]), the EC50 came to 8.91 µM. The Emax in data set [3] (setting [15]) was 54%.
`COc1ccc2c(c1)[C@]1(C[C@H]1c1ccc3c(/C=C/c4ccc(CN5C[C@@H](C)O[C@@H](C)C5)cc4)n[nH]c3c1)C(=O)N2` [CFI-400945] yielded a cytotoxicity at 72 h in data set [8] of 31.4%. Besides, the EC50 in data set [3] (setting [14]) was 11.2 µM. Also, the Emax in data set [3] (setting [15]) was 77.8%.
With `CC(CN1c2ccccc2Sc2ccccc21)N(C)C` (stereo not shown) [Promethazine], in data set [8], the CC50 at 72 h is 15.8 µM and the cytotoxicity at 72 h came to 15.4%. For the same compound, the EC50 in [3] (setting [14]) turned out to be 11.2 µM. Besides, the Emax in [3] (setting [15]) is 94%.
As for `Cc1cccc(/C=N/Nc2cc(N3CCOCC3)nc(OCCc3ccccn3)n2)c1` [Apilimod, reference compound], the cytotoxicity at 72 h in [8] is < 30%. For the same compound, the EC50 in data set [3] (setting [11]) turned out to be 0.023 µM. Moreover, the Emax in data set [3] (setting [12]) is 104%.
In data set [8], `CC(=O)O[C@@H]1C[C@H](O)[C@@]23CO[C@@H](O)[C@]1(C)[C@@H]2C[C@@H](O)[C@]1(C)[C@@H]3C(=O)[C@H](OC(C)=O)[C@@]2(C)[C@H](c3ccoc3)C[C@H]3O[C@]321` [Toosendanin] came in with a CC50 of 2.66 µM and a cytotoxicity of 40.9%. Moreover, in data set [3] (setting [14]), the EC50 is 1.19 µM. For the same compound, in data set [3] (setting [15]), the Emax worked out at 88.9%.
In [8], `COc1cc(C(C)=O)ccc1OCCCN1CCC(c2noc3cc(F)ccc23)CC1` [Iloperidone] displayed a CC50 at 72 h of 15.8 µM and a cytotoxicity at 72 h of 16.4%. In addition, in data set [3] (setting [16]), the Emax worked out at 108%. Also, the EC50 in data set [3] (setting [17]) is 12.6 µM.
`CC(C)(O)CNc1ncc(-c2ccnc(Nc3ccnc(Cl)c3)n2)c(CC2CC2)n1` [VPS34-IN1, reference compound] registered a CC50 in [8] of 10 µM. Besides, the “Shape of concentration-response in the CPE assay” value in data set [3] (Figure 3) was “bell-shaped concentration-responses due to cytotoxicity”. The EC50 in [3] (setting [11]) worked out at 0.63 µM. Also, in [3] (setting [12]), the Emax worked out at 103%.
In data set [8], `O[C@H]1[C@H]2c3cc4c(cc3CN3CCC(=C[C@@H]1O)[C@H]23)OCO4` [Lycorine hydrochloride] gave a CC50 of 3.55 µM and a cytotoxicity of 90.6%. Also, the EC50 in [3] (setting [14]) is 0.63 µM. Besides, the Emax in data set [3] (setting [15]) stood at 34.6%.

Usually Cmax stands for the peak of the concentration-time curve. As a reminder, the IC50 is the midpoint of a concentration-inhibition curve.
